Data reported in patent US10639284B2, “Immunomodulator compounds” (CHEMOCENTRYX, INC., priority 2016, dated 2020).
pIC50: −log10 of the molar value.

What follows are molecules tested against human PD-L1 / Human PD-1 (Homo sapiens (Human), UniProt Q9NZQ7) (assay: Enzyme-Linked Immunosorbent Assay (ELISA), PD-1/PD-L1 binding). Conditions: Table 2; plate-coated human PD-L1, biotinylated human PD-1; read-out: ELISA IC50.
Chain of human PD-L1 / Human PD-1 (Q9NZQ7 19-239): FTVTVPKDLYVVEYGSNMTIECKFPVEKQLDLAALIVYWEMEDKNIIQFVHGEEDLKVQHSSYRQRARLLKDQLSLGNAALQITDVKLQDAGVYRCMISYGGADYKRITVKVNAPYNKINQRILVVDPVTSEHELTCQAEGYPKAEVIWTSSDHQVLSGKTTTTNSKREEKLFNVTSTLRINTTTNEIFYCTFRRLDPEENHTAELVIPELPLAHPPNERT
Protocol: Plates were coated with 1 μg/mL of human PD-L1 (obtained from R&D) in PBS overnight at 4° C. The wells were then blocked with PBS containing 2% BSA in PBS (W/V) with 0.05% TWEEN-20 for 1 hour at 37° C. The plates were washed 3 times with PBS/0.05% TWEEN-20 and the samples were diluted to 1:5 in dilution medium in the ELISA plates. Human PD-1 and biotin 0.3 μg/mL (ACRO Biosystems) were added and incubated for 1 hour at 37° C. then washed 3 times with PBS/0.05% TWEEN-20. A second block was added with PBS containing 2% BSA in PBS (W/V)/0.05% TWEEN-20 for 10 min at 37° C. and was washed 3 times with PBS/0.05% TWEEN-20. Streptavidin-HRP was added for 1 hour at 37° C. then washed 3 times with PBS/0.05% TWEEN-20. TMB substrate was added and reacted for 20 min at 37° C. A stop solution (2 N aqueous H2SO4) was added. The absorbance was read at 450 nm using a micro-plate spectrophotometer.
Compounds in Table 2 and Table 3 were prepared by methods as described in the Examples, and evaluated according to the assay below.
Work on Cc1cccc(-c2cccc3c2CC[C@@H]3Oc2cc(OCc3cncc(C#N)c3)c(CN[C@@H](CO)C(=O)O)cc2Cl)c1F [Example 2.046] yielded a pIC50 of over 7.00.
With COc1cccc(-c2ccc(F)c3c2CCC3Oc2cc(OCc3cncc(C#N)c3)c(CN[C@@H](CO)C(=O)O)cc2Cl)c1F (stereo partly drawn) [Example 2.047] the pIC50 was over 7.00.
With CCOc1cc(O[C@H]2CCc3c(-c4cccc(OC)c4F)cccc32)c(Cl)cc1CN[C@@H](CO)C(=O)O [Example 2.048] the pIC50 was over 7.00.
With COc1cccc(-c2cccc3c2CC(C)C3Oc2cc(OCc3cncc(C#N)c3)c(CN[C@@H](CO)C(=O)O)cc2Cl)c1F (stereo partly drawn) [Example 2.049] the pIC50 was 4.70 to 6.30.
N#Cc1cncc(COc2cc(O[C@H]3CCc4c(-c5ccc6c(c5)OCCO6)cccc43)c(Cl)cc2CN2CC(O)C2)c1 [Example 2.050] was tested, and the pIC50 was over 7.00.
COc1cccc(-c2cccc3c2CC[C@@H]3Oc2cc(OCc3cncc(C#N)c3)c(CN3CC(O)C3)cc2Cl)c1F [Example 2.051] was tested, and the pIC50 was over 7.00.
COc1cccc(-c2cccc3c2CC[C@@H]3Oc2cc(OCc3cncc(C#N)c3)c(CN3CCC(O)CC3)cc2Cl)c1F [Example 2.052] was tested, and the pIC50 was 6.30 to 7.00.
In the case of COc1cccc(-c2cccc3c2CC[C@@H]3Oc2cc(OCc3cncc(C#N)c3)c(CNCc3n[nH]c(=O)[nH]3)cc2Cl)c1F [Example 2.053], the pIC50 was 6.30 to 7.00.
For COc1cccc(-c2cccc3c2CC[C@@H]3Oc2cc(OCc3cncc(C#N)c3)c(CNCc3noc(=O)[nH]3)cc2Cl)c1F [Example 2.054], the pIC50 was 4.70 to 6.30.
Molecule COc1cccc(-c2cccc3c2CC[C@@H]3Oc2cc(OCc3cncc(C#N)c3)c(CN3CCC[C@@H](O)C3)cc2Cl)c1F [Example 2.055] has a pIC50 of 6.30 to 7.00.
With CCOc1cc(O[C@H]2CCc3c(-c4ccc5c(c4F)OCCO5)cccc32)c(Cl)cc1CN[C@@H](CO)C(=O)O [Example 2.056] the pIC50 was over 7.00.
Molecule N#Cc1cncc(COc2cc(O[C@H]3CCc4c(-c5ccc6c(c5F)OCCO6)cccc43)c(Cl)cc2CN[C@@H](CO)C(=O)O)c1 [Example 2.057] has a pIC50 of over 7.00.
N#Cc1cncc(COc2cc(O[C@H]3CCc4c(-c5ccc6c(c5F)OCCO6)cccc43)c(Cl)cc2CN2CCC(O)CC2)c1 [Example 2.058] gave a pIC50 of over 7.00.
Work on CCOc1cc(O[C@H]2CCc3c(-c4ccc5c(c4F)OCCO5)cccc32)c(Cl)cc1CN1CCC(O)CC1 [Example 2.059] yielded a pIC50 of 4.70 to 6.30.
Work on COc1cccc(-c2cccc3c2CC[C@@H]3Oc2cc(OCc3cncc(C#N)c3)c(CN3CCC[C@H](O)C3)cc2Cl)c1F [Example 2.060] yielded a pIC50 of 6.30 to 7.00.
CCOc1cc(O[C@H]2CCc3c(-c4ccccc4F)cccc32)c(Cl)cc1CN1CCC(O)CC1 [Example 2.061] gave a pIC50 of 4.70 to 6.30.
Work on N#Cc1cncc(COc2cc(O[C@H]3CCc4c(-c5cc(C#N)ccc5F)cccc43)c(Cl)cc2CN[C@@H](CO)C(=O)O)c1 [Example 2.062] yielded a pIC50 of 4.70 to 6.30.
Work on N#Cc1cncc(COc2cc(O[C@H]3CCc4c(-c5ccccc5F)cccc43)c(Cl)cc2CNCP(=O)(O)O)c1 [Example 2.063] yielded a pIC50 of over 7.00.
For COc1cccc(-c2cccc3c2CC[C@@H]3Oc2cc(OCc3cncc(C#N)c3)c(CN3CC(O)C(C(=O)O)C3)cc2Cl)c1F (stereo partly drawn) [Example 2.064], the pIC50 was over 7.00.
With COc1ccc(Cl)c(-c2cccc3c2CC[C@@H]3Oc2cc(OCc3cncc(C#N)c3)c(CN[C@@H](CO)C(=O)O)cc2Cl)c1 [Example 2.065] the pIC50 was over 7.00.
COc1cccc(-c2cccc3c2CC[C@@H]3Oc2cc(OCc3cncc(C#N)c3)c(CNCc3ccc(B(O)O)cc3)cc2Cl)c1F [Example 2.066] showed a pIC50 of 4.70 to 6.30.
In the case of Cc1ccc(F)c(-c2cccc3c2CC[C@@H]3Oc2cc(OCc3cncc(C#N)c3)c(CN[C@@H](CO)C(=O)O)cc2Cl)c1 [Example 2.067], the pIC50 was over 7.00.
In the case of Cc1ccc(-c2cccc3c2CC[C@@H]3Oc2cc(OCc3cncc(C#N)c3)c(CN[C@@H](CO)C(=O)O)cc2Cl)c(F)c1 [Example 2.068], the pIC50 was 6.30 to 7.00.
With N#Cc1cncc(COc2cc(O[C@H]3CCc4c(-c5cccc(OC(F)(F)F)c5F)cccc43)c(Cl)cc2CN[C@@H](CO)C(=O)O)c1 [Example 2.069] the pIC50 was 4.70 to 6.30.
In the case of N#Cc1cncc(COc2cc(O[C@H]3CCc4c(-c5ccc6c(c5F)OCCO6)cccc43)c(Cl)cc2CN2CC(O)C2)c1 [Example 2.070], the pIC50 was over 7.00.
Work on COc1cccc(-c2cccc3c2CC[C@@H]3Oc2cc(OCc3cncc(C#N)c3)c(CN3CCC(O)CC3)cc2Cl)c1Cl [Example 2.071] yielded a pIC50 of 6.30 to 7.00.
COc1cccc(-c2cccc3c2CC[C@@H]3Oc2cc(OCc3cncc(C#N)c3)c(CN3CC(O)C3)cc2Cl)c1Cl [Example 2.072] was tested, and the pIC50 was 6.30 to 7.00.
With COc1cccc(-c2cccc3c2CC[C@@H]3Oc2cc(OCc3cncc(C#N)c3)c(CN3C[C@H](O)C[C@@H]3C(=O)O)cc2Cl)c1F [Example 2.073] the pIC50 was over 7.00.
CCCOc1cc(O[C@H]2CCc3c(-c4ccccc4F)cccc32)c(Cl)cc1CN[C@@H](CO)C(=O)O [Example 2.074] gave a pIC50 of 6.30 to 7.00.
For CC1(O)CCN(Cc2cc(Cl)c(O[C@H]3CCc4c(-c5ccccc5F)cccc43)cc2OCc2cncc(C#N)c2)CC1 [Example 2.075], the pIC50 was 6.30 to 7.00.
With Cc1cccc(-c2cccc3c2CC[C@@H]3Oc2cc(OCc3cncc(C#N)c3)c(CN3CC(O)C3)cc2Cl)c1F [Example 2.076] the pIC50 was 6.30 to 7.00.
With COc1ccc(F)c(-c2cccc3c2CC[C@@H]3Oc2cc(OCc3cncc(C#N)c3)c(CN3CC(O)C3)cc2Cl)c1 [Example 2.077] the pIC50 was 6.30 to 7.00.
For COc1cccc(-c2cccc3c2CC[C@@H]3Oc2cc(OCc3cncc(C#N)c3)c(CNCCS(N)(=O)=O)cc2Cl)c1F [Example 2.078], the pIC50 was 4.70 to 6.30.
COc1ccc(F)c(-c2cccc3c2CC[C@@H]3Oc2cc(OCc3cncc(C#N)c3)c(CN3CCC(O)CC3)cc2Cl)c1 [Example 2.079] was tested, and the pIC50 was 6.30 to 7.00.
Molecule COc1cccc(-c2cccc3c2CCC3Oc2cc(OCc3cncc(C#N)c3)c(CNCCC(N)=O)cc2Cl)c1F (stereo not drawn) [Example 2.080] has a pIC50 of 6.30 to 7.00.
COc1cccc(-c2cccc3c2CC[C@@H]3Oc2cc(OCc3cncc(C#N)c3)c(CN3CCC(CO)CC3)cc2Cl)c1Cl [Example 2.081] gave a pIC50 of 6.30 to 7.00.
COc1cccc(-c2cccc3c2CC[C@@H]3Oc2cc(OCc3cncc(C#N)c3)c(CN3CCOCC3)cc2Cl)c1Cl [Example 2.082] showed a pIC50 of 4.70 to 6.30.
COc1cccc(-c2cccc3c2CC[C@@H]3Oc2cc(OCc3cncc(C#N)c3)c(CN3CCC(C(N)=O)CC3)cc2Cl)c1Cl [Example 2.083] was tested, and the pIC50 was 6.30 to 7.00.
O=C(O)[C@H](CO)NCc1cc(Cl)c(O[C@H]2CCc3c(-c4ccccc4F)cccc32)cc1OCc1cnc(Cl)nc1 [Example 2.084] gave a pIC50 of over 7.00.
COc1cccc(-c2cccc3c2CCC3CCOc2cc(OCc3cncc(C#N)c3)c(CN[C@@H](CO)C(=O)O)cc2Cl)c1F (stereo partly drawn) [Example 2.085] was tested, and the pIC50 was 4.70 to 6.30.
COc1cccc(-c2cccc3c2CCC3CCOc2cc(OCc3cncc(C#N)c3)c(CN3CCC(O)CC3)cc2Cl)c1F (stereo not drawn) [Example 2.086] gave a pIC50 of 4.70 to 6.30.
Work on COc1cccc(-c2cccc3c2CCC3CCOc2cc(OCc3cncc(C#N)c3)c(CN3CCC(O)CC3)cc2Cl)c1F (stereo not drawn) [Example 2.087] yielded a pIC50 of 4.70 to 6.30.
COc1cccc(-c2cccc3c2CCC3CCOc2cc(OCc3cncc(C#N)c3)c(CN3CC(O)C3)cc2Cl)c1F (stereo not drawn) [Example 2.088] gave a pIC50 of 4.70 to 6.30.
In the case of COC(=O)c1cccc(COc2cc(O[C@H]3CCc4c(-c5ccccc5F)cccc43)c(Cl)cc2CN2CCC(O)CC2)c1 [Example 2.089], the pIC50 was 4.70 to 6.30.
For N#CCCCCOc1cc(O[C@H]2CCc3c(-c4ccccc4F)cccc32)c(Cl)cc1CN1CCC(O)CC1 [Example 2.090], the pIC50 was 6.30 to 7.00.
